In brackets after ≈: the same amount, converted by molar mass. Activity calls are given as the source filed them. The calls are words filed in the database; no cut-off is given here.
Columns and labels:
Staphylococcus aureus [1] = assay: Bactericidal activity against Staphylococcus aureus MTCC-96 at 2 times MIC incubated for 1 hrs in presence of ZnCl2 by time kill assay; type: functional, organism-based
Staphylococcus aureus [2] = assay: In vivo antibacterial activity against Staphylococcus aureus MTCC-96 infected in Balb/c mouse assessed as uniform distribution of hepatic lobules in liver tissue at 156.5 microM/Kg, iv for 7 days by hematoxylin and eosin staining based microscopic analysis; type: functional, organism-based; conditions: time 7.0 day
Staphylococcus aureus [3] = assay: In vivo antibacterial activity against Staphylococcus aureus MTCC-96 infected in Balb/c mouse assessed as bacterial load by measuring CFU in liver at 156.5 microM/Kg, iv for 7 days by CFU assay (Rvb= 719 CFU); type: functional; conditions: time 7 day
Staphylococcus aureus [4] = assay: In vivo antibacterial activity against Staphylococcus aureus MTCC-96 infected in Balb/c mouse assessed as liver central vein with minimum infiltration at 156.5 microM/Kg, iv for 7 days by hematoxylin and eosin staining based microscopic analysis; type: functional, organism-based; conditions: time 7.0 day
HCT-116 = assay: Cytotoxicity against human HCT-116 cells assessed as reduction in cell viability at 1 to 100 uM incubated for 44 hrs by MTT assay; type: toxicity, cell-based; conditions: hct-116, 44 h, dose 1-100 µM
Staphylococcus aureus [5] = assay: Antibacterial activity against gentamicin-and methicillin-resistant Staphylococcus aureus ATCC 33592 assessed as reduction in bacterial growth incubated for 14 to 16 hrs by microbroth dilution method; type: functional; conditions: time 14-16 hrs
Staphylococcus aureus [6] = assay: Antibacterial activity against Staphylococcus aureus MTCC-96 assessed as resistance development by measuring fold increase in MIC and measured after 30 days by microbroth dilution method; type: functional; conditions: time 30 day
Lipid bilayer [7] = assay: (§1) Induction of ionophore activity across EYPC:CHOL (8:2) large unilamellar vesicles assessed as transmembrane anion transport by measuring decrease in fluorescence intensity for HPTS dye preincubated for 3 mins followed by ZnBr2 addition and mesured after 7.5 mins by HPTS dye based fluorescence spectrophotometric analysis; conditions: filed as opener; time 10.5 min
Staphylococcus aureus [8] = assay: Antibacterial activity against Staphylococcus aureus MTCC-96 assessed as reduction in bacterial growth incubated for 14 to 16 hrs in presence of 100 to 400 uM Zn(NO3)2 by microbroth dilution method; type: functional, organism-based; conditions: time 14-16 hrs
Staphylococcus aureus [9] = assay: In vivo antibacterial activity against Staphylococcus aureus MTCC-96 infected in Balb/c mouse assessed as uniform distribution of hepatocytes in liver tissue at 31.6 microM/Kg, iv for 7 days in presence of ZnCl2 by hematoxylin and eosin staining based microscopic analysis; type: functional, organism-based; conditions: time 7.0 day
Staphylococcus aureus [10] = assay: In vivo antibacterial activity against Staphylococcus aureus MTCC-96 infected in Balb/c mouse assessed as uniform distribution of hepatic lobules in liver tissue at 31.6 microM/Kg, iv for 7 days in presence of ZnCl2 by hematoxylin and eosin staining based microscopic analysis; type: functional, organism-based; conditions: time 7.0 day
PBMC [11] = assay: Cytotoxicity against human PBMC cells assessed as reduction in cell viability at 12.5 to 200 uM incubated for 24 hrs by MTT assay; type: toxicity, cell-based; conditions: dose 12.5-200 µM
MDA-MB-231 = assay: Cytotoxicity against human MDA-MB-231 cells assessed as reduction in cell viability at 1 to 100 uM incubated for 44 hrs by MTT assay; type: toxicity, cell-based; conditions: mda-mb-231, 44 h, dose 1-100 µM
Lipid bilayer [12] = assay: as §1, with “cation” for “anion”, “CaCl2” for “ZnBr2”; conditions: time 10.5 min
Staphylococcus aureus [13] = assay: Bactericidal activity against Staphylococcus aureus MTCC-96 at 2 times MIC incubated for 1 hrs by time kill assay; type: functional, organism-based
Lipid bilayer [14] = assay: as §1, with “Zn(NO3)2” for “ZnBr2”; conditions: filed as opener; time 10.5 min
Lipid bilayer [15] = assay: (§2) Induction of ionophore activity across EYPC:CHOL (8:2) large unilamellar vesicles assessed as transmembrane Zn2+ ion transport by measuring decrease in fluorescence intensity for HPTS dye at 10 uM preincubated for 3 mins followed by ZnCl2 addition and mesured after 7.5 mins by HPTS dye based fluorescence spectrophotometric analysis; conditions: filed as opener, time 10.5 min
Lipid bilayer [16] = assay: as §2, with “measuring” for “measuring decrease in”, “CFZ” for “HPTS”; conditions: filed as opener, time 10.5 min
Lipid bilayer [17] = assay: as §1, with “cation” for “anion”, “NaCl” for “ZnBr2”; conditions: time 10.5 min
Staphylococcus aureus [18] = assay: Antibacterial activity against Staphylococcus aureus MTCC-96 assessed as reduction in bacterial growth incubated for 14 to 16 hrs by microbroth dilution method; type: functional; conditions: time 14-16 hrs
Staphylococcus aureus [19] = assay: In vivo antibacterial activity against Staphylococcus aureus MTCC-96 infected in Balb/c mouse assessed as normal architecture of bile duct in liver tissue at 31.6 microM/Kg, iv for 7 days in presence of ZnCl2 by hematoxylin and eosin staining based microscopic analysis; type: functional, organism-based; conditions: time 7.0 day
A549 = assay: Cytotoxicity against human A549 cells assessed as reduction in cell viability at 1 to 100 uM incubated for 44 hrs by MTT assay; type: toxicity, cell-based; conditions: a549, 44 h, dose 1-100 µM
Lipid bilayer [20] = assay: as §1, with “cation” for “anion”, “CuCl2” for “ZnBr2”; conditions: filed as opener; time 10.5 min
Cell membrane = assay: Induction of cell membrane depolarization in Staphylococcus aureus MTCC-96 assessed as change in fluorescence intensity at 3.13 uM by DiSC3-5 dye based fluorescence method; type: subcellular
Staphylococcus aureus [21] = assay: In vivo antibacterial activity against Staphylococcus aureus MTCC-96 infected in Balb/c mouse assessed as normal architecture of central vein in liver tissue at 31.6 microM/Kg, iv for 7 days in presence of ZnCl2 by hematoxylin and eosin staining based microscopic analysis; type: functional, organism-based; conditions: time 7.0 day
Staphylococcus aureus [22] = assay: Antibacterial activity against Staphylococcus aureus MTCC-96 assessed as fold reduction in bacterial growth incubated for 14 to 16 hrs in presence of 400 uM ZnCl2 by microbroth dilution method; type: functional; conditions: time 14-16 hrs
Staphylococcus aureus [23] = assay: In vivo antibacterial activity against Staphylococcus aureus MTCC-96 infected in Balb/c mouse assessed as uniform distribution of sinusoids in liver tissue at 156.5 microM/Kg, iv for 7 days by hematoxylin and eosin staining based microscopic analysis; type: functional, organism-based; conditions: time 7.0 day
Staphylococcus aureus [24] = assay: Antibacterial activity against Staphylococcus aureus MTCC-96 assessed as reduction in bacterial growth incubated for 14 to 16 hrs in presence of 100 to 400 uM ZnBr2 by microbroth dilution method; type: functional, organism-based; conditions: time 14-16 hrs
Staphylococcus aureus [25] = assay: In vivo antibacterial activity against Staphylococcus aureus MTCC-96 infected in Balb/c mouse assessed as bacterial load by measuring CFU in spleen at 156.5 microM/Kg, iv for 7 days by CFU assay; type: functional, organism-based; conditions: time 7.0 day
PBMC [26] = assay: Cytotoxicity against human PBMC cells assessed as reduction in cell viability at 12.5 to 200 uM incubated for 24 hrs in presence of ZnCl2 by MTT assay; type: toxicity, cell-based; conditions: dose 12.5-200 µM
Staphylococcus aureus [27] = assay: Antibacterial activity against Staphylococcus aureus MTCC-96 assessed as reduction in bacterial growth incubated for 14 to 16 hrs in presence of 100 to 400 uM MnCl2 by microbroth dilution method; type: functional, organism-based; conditions: time 14-16 hrs
Staphylococcus aureus [28] = assay: In vivo antibacterial activity against Staphylococcus aureus MTCC-96 infected in Balb/c mouse assessed as reduction in bacterial load by measuring CFU in spleen at 31.6 microM/Kg, iv for 7 days in presence of ZnCl2 by CFU assay; type: functional, organism-based; conditions: time 7.0 day

Q: With `FC(F)(F)c1cc(NC(=S)Nc2cccc3ccc(-n4cnc5ccccc54)nc23)cc(C(F)(F)F)c1` as the compound, how does the Activity (Staphylococcus aureus [1]) read?
A: The Activity was “Active”.

Q: And the Activity (Staphylococcus aureus [2])?
A: Its Activity is “Active”.

Q: What about the Activity (Staphylococcus aureus [3]) of the same compound?
A: Its Activity is 46 CFU.

Q: What about the Activity (Staphylococcus aureus [4]) of the same compound?
A: Its Activity is “Active”.

Q: And the Activity (HCT-116)?
A: Its Activity is “Non-Toxic”.

Q: And the MIC (Staphylococcus aureus [5])?
A: Its MIC is 3.13 µM (≈ 1.66 µg/mL).

Q: And the “fold change (FC)” value (Staphylococcus aureus [6])?
A: Its value is 14.

Q: What about the Activity (Lipid bilayer [7]) of the same compound?
A: Its Activity is “Active”.

Q: And the Activity (Staphylococcus aureus [8])?
A: The Activity was “Active”.

Q: And the Activity (Staphylococcus aureus [9])?
A: Its Activity is “Active”.

Q: What about the Activity (Staphylococcus aureus [10]) of the same compound?
A: Its Activity is “Active”.

Q: And the Activity (PBMC [11])?
A: The Activity was “Non-Toxic”.

Q: And the Activity (MDA-MB-231)?
A: Its Activity is “Non-Toxic”.

Q: What about the Activity (Lipid bilayer [12]) of the same compound?
A: The Activity was “inactive”.

Q: And the Activity (Staphylococcus aureus [13])?
A: Its Activity is “Active”.

Q: What about the Activity (Lipid bilayer [14]) of the same compound?
A: The Activity was “Active”.

Q: What about the Activity (Lipid bilayer [15]) of the same compound?
A: The Activity was “Active”.

Q: And the Activity (Lipid bilayer [16])?
A: Its Activity is “Active”.

Q: And the Activity (Lipid bilayer [17])?
A: The Activity was “inactive”.

Q: What about the MIC (Staphylococcus aureus [18]) of the same compound?
A: The MIC was 3.13 µM (≈ 1.66 µg/mL).

Q: And the Activity (Staphylococcus aureus [19])?
A: The Activity was “Active”.

Q: What about the Activity (A549) of the same compound?
A: Its Activity is “Non-Toxic”.

Q: And the Activity (Lipid bilayer [20])?
A: Its Activity is “Active”.

Q: And the Activity (Cell membrane)?
A: The Activity was “inactive”.

Q: And the Activity (Staphylococcus aureus [21])?
A: Its Activity is “Active”.

Q: And the “fold change (FC)” value (Staphylococcus aureus [22])?
A: The value was 6.65.

Q: And the Activity (Staphylococcus aureus [23])?
A: The Activity was “Active”.

Q: What about the Activity (Staphylococcus aureus [24]) of the same compound?
A: Its Activity is “Active”.

Q: And the Activity (Staphylococcus aureus [25])?
A: The Activity was “Active”.

Q: What about the Activity (PBMC [26]) of the same compound?
A: The Activity was “Non-Toxic”.

Q: What about the Activity (Staphylococcus aureus [27]) of the same compound?
A: Its Activity is “inactive”.

Q: What about the Activity (Staphylococcus aureus [28]) of the same compound?
A: Its Activity is “Active”.
